Reference: patent US8530504B2, “Pyrazolothiazole compound” (Eisai R&D Management Co., Ltd., priority 2009, dated 2013)
pIC50: −log10 of the molar value.

Molecular target: human CRFR1 (Homo sapiens (Human), UniProt P34998)
Assay: CRFR1 Binding Test;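 also: nonspecific binding was determined with a 4,000-fold excess of unlabelled sauvagine and subtracted from every reading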
Settings: competition with 100 pM 125I-CRF, SPA method, membrane fraction of human CRFR1-expressing HEK293 cells; read-out: CRF1 receptor binding capacity IC50

human CRFR1, sequence (P34998 24-415): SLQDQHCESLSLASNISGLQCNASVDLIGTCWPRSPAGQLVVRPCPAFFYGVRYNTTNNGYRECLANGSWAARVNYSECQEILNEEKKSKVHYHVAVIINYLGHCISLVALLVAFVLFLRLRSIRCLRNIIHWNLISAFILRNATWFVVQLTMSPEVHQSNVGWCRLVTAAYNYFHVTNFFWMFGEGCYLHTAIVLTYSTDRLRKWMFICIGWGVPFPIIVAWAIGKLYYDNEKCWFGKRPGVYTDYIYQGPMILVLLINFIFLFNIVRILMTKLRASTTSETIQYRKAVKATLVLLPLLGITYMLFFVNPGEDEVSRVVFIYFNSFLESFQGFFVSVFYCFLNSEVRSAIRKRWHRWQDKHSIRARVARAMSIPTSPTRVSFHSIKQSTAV

Compound	pIC50
COCc1cc(OC)c(-c2csc3c(N(CC4CC4)CC(C)OC)c(OC)nn23)c(OC)c1 (stereo not drawn) [Example 51, N-(Cyclopropylmethyl)-3-[2,6-dimethoxy-4-(methoxymethyl)phenyl]-6-methoxy-N-(2-methoxypropyl)pyrazolo[5,1-b][1,3]thiazole-7-amine]	7.44
COCc1cc(OC)c(-c2csc3c(N(CC4CC4)C4CCOC4)c(OC)nn23)c(OC)c1 (stereo not drawn) [Example 13, N-(Cyclopropylmethyl)-3-[2,6-dimethoxy-4-(methoxymethyl)phenyl]-6-methoxy-N-(tetrahydrofuran-3-yl)pyrazolo[5,1-b][1,3]thiazole-7-amine]	7.25
CCCN(CCC)c1c(C)nn2c(-c3c(OC)cc(COC)cc3OC)c([S+](C)[O-])sc12 (stereo not drawn) [Example 3, 3-[2,6-Dimethoxy-4-(methoxymethyl)phenyl]-6-methyl-2-(methylsulfinyl)-N,N-dipropylpyrazolo[5,1-b][1,3]thiazole-7-amine]	6.53
COCCN(c1c(OC)nn2c(-c3c(OC)cc(C#N)cc3OC)csc12)C1CCCC1 [Example 74, 4-{7-[Cyclopentyl(2-methoxyethyl)amino]-6-methoxypyrazolo[5,1-b][1,3]thiazol-3-yl}-3,5-dimethoxybenzonitrile]	7.28
CCCCN(c1c(OCC)nn2c(-c3c(OC)cc(COC)cc3OC)csc12)C1CCOCC1 [Example 82, N-Butyl-3-[2,6-dimethoxy-4-(methoxymethyl)phenyl]-6-ethoxy-N-(tetrahydro-2H-pyran-4-yl)-pyrazolo[5,1-b][1,3]thiazole-7-amine]	7.20
COCc1cc(OC)c(-c2csc3c(N(CCC(C)OC)CC4CC4)c(OC)nn23)c(OC)c1 (stereo not drawn) [Example 50, N-(Cyclopropylmethyl)-3-[2,6-dimethoxy-4-(methoxymethyl)phenyl]-6-methoxy-N-(3-methoxybutyl)pyrazolo[5,1-b][1,3]thiazole-7-amine]	7.06
CCCN(c1c(OCC)nn2c(-c3c(OC)cc(COC)cc3OC)csc12)C1CCOCC1 [Example 79, 3-[2,6-Dimethoxy-4-(methoxymethyl)phenyl]-6-ethoxy-N-propyl-N-(tetrahydro-2H-pyran-4-yl)pyrazolo[5,1-b][1,3]thiazole-7-amine]	7.12
CCCN(c1c(OC)nn2c(-c3c(OC)cc(C4CC4)cc3OC)csc12)C1CCOCC1 [Example 61, 3-(4-Cyclopropyl-2,6-dimethoxyphenyl)-6-methoxy-N-propyl-N-(tetrahydro-2H-pyran-4-yl)pyrazolo[5,1-b][1,3]thiazole-7-amine]	7.41
CCCN(CC1CCOC1)c1c(OCC)nn2c(-c3c(OC)cc(COC)cc3OC)csc12 (stereo not drawn) [Example 84, 3-[2,6-Dimethoxy-4-(methoxymethyl)phenyl]-6-ethoxy-N-propyl-N-(tetrahydrofuran-3-ylmethyl)pyrazolo[5,1-b][1,3]thiazole-7-amine]	7.29
CCCN(CCC)c1c(C)nn2c(-c3c(OC)cc(COC)cc3OC)c(SC)sc12 [Example 2]	7.41
COCCCN(CC1CC1)c1c(OC)nn2c(-c3c(OC)cc(COC)cc3OC)csc12 [Example 32, N-(Cyclopropylmethyl)-3-[2,6-dimethoxy-4-(methoxymethyl)phenyl]-6-methoxy-N-(3-methoxypropyl)pyrazolo[5,1-b][1,3]thiazole-7-amine]	7.24
CCCN(c1c(OC)nn2c(-c3c(OC)cc(COC(C)C)cc3OC)csc12)C1CCOCC1 [Example 68, [3-(4-Isopropoxymethyl-2,6-dimethoxyphenyl)-6-methoxy-pyrazolo[5,1-b][1,3]thiazol-7-yl]-propyl-(tetrahydro-pyran-4-yl)-amine]	7.11
COc1cc(C(C)OC)cc(OC)c1-c1csc2c(N(CC3CC3)CC3CCOC3)c(OC)nn12 (stereo not drawn) [Example 19, N-(Cyclopropylmethyl)-3-[2,6-dimethoxy-4-(1-methoxyethyl)phenyl]-6-methoxy-N-(tetrahydrofuran-3-ylmethyl)pyrazolo[5,1-b][1,3]thiazole-7-amine]	7.28
COCc1cc(OC)c(-c2csc3c(N(CC4CCC4)C4CCOC4)c(OC)nn23)c(OC)c1 (stereo not drawn) [Example 29, N-(Cyclobutylmethyl)-3-[2,6-dimethoxy-4-(methoxymethyl)phenyl]-6-methoxy-N-(tetrahydrofuran-3-yl)pyrazolo[5,1-b][1,3]thiazole-7-amine]	7.35
CCCN(c1c(OC)nn2c(-c3c(OC)cc(COC)cc3OC)c(C)sc12)C1CCOCC1 [Example 7, [3-(2,6-Dimethoxy-4-methoxymethyl-phenyl)-6-methoxy-2-methyl-pyrazolo[5,1-b][1,3]thiazol-7-yl]-propyl-(tetrahydro-pyran-4-yl)-amine]	7.03
COCc1cc(OC)c(-c2csc3c(N(CCCF)Cc4cccnc4)c(OC)nn23)c(OC)c1 [Example 71, 3-[2,6-Dimethoxy-4-(methoxymethyl)phenyl]-N-(3-fluoropropyl)-6-methoxy-N-(pyridin-3-ylmethyl)-pyrazolo[5,1-b][1,3]thiazole-7-amine]	7.24
CCN(c1c(OC)nn2c(-c3c(OC)cc(COC)cc3OC)csc12)C1CCCC1 [Example 66, N-Cyclopentyl-3-[2,6-dimethoxy-4-(methoxymethyl)phenyl]-N-ethyl-6-methoxypyrazolo[5,1-b][1,3]thiazole-7-amine]	7.59

Compound	pIC50
CCN(c1c(OC)nn2c(-c3c(OC)cc(COC)cc3OC)csc12)C1CCC1 [Example 59, N-Cyclobutyl-3-[2,6-dimethoxy-4-(methoxymethyl)phenyl]-N-ethyl-6-methoxypyrazolo[5,1-b][1,3]thiazole-7-amine]	7.62
CCCCN(CCOC)c1c(OC)nn2c(-c3c(OC)cc(COCC)cc3OC)csc12 [Example 41, N-Butyl-3-[4-(ethoxymethyl)-2,6-dimethoxyphenyl]-6-methoxy-N-(2-methoxyethyl)pyrazolo[5,1-b][1,3]thiazole-7-amine]	7.60
COCc1cc(OC)c(-c2csc3c(N(CC4CC4)CC4C5COCC54)c(OC)nn23)c(OC)c1 (single isomer, unassigned; diastereomer 2) [Example 96, N-(Cyclopropylmethyl)-3-[2,6-dimethoxy-4-(methoxymethyl)phenyl]-6-methoxy-N-[3-oxabicyclo[3.1.0]hex-6-ylmethyl]-pyrazolo[5,1-b][1,3]thiazole-7-amine (diastereomer 2)]	7.21
COc1cc(C)cc(OC)c1-c1csc2c(N(CC3CC3)C3CCOCC3)c(OC)nn12 [Example 25, N-(Cyclopropylmethyl)-3-(2,6-dimethoxy-4-methylphenyl)-6-methoxy-N-(tetrahydro-2H-pyran-4-yl)pyrazolo[5,1-b][1,3]thiazole-7-amine]	7.37
COCc1cc(OC)c(-c2csc3c(N(CC4CCOC4)CC4CC(F)(F)C4)c(OC)nn23)c(OC)c1 (stereo not drawn) [Example 37, N-[(3,3-Difluorocyclobutyl)methyl]-3-[2,6-dimethoxy-4-(methoxymethyl)phenyl]-6-methoxy-N-(tetrahydrofuran-3-ylmethyl)pyrazolo[5,1-b][1,3]thiazole-7-amine]	7.02
COc1cc(C#N)cc(OC)c1-c1csc2c(N(CC3CC3)CC3C4COCC43)c(OC)nn12 (single isomer, unassigned; diastereomer 1) [Example 100]	7.05
COCCCN(c1c(OC)nn2c(-c3c(OC)cc(C4CC4)cc3OC)csc12)C1CCCC1 [Example 69, N-Cyclopentyl-3-(4-cyclopropyl-2,6-dimethoxyphenyl)-6-methoxy-N-(3-methoxypropyl)pyrazolo[5,1-b][1,3]-thiazole-7-amine]	7.32
COCc1cc(OC)c(-c2csc3c(N(CC(C)C)C4CCOC4)c(OC)nn23)c(OC)c1 (stereo not drawn) [Example 43, [3-(2,6-Dimethoxy-4-methoxymethylphenyl)-6-methoxy-pyrazolo[5,1-b][1,3]thiazol-7-yl]-isobutyl-(tetrahydrofuran-3-yl)-amine]	7.35
CCCN(CCC)c1c(OC)nn2c(-c3c(OC)cc(COC)cc3OC)csc12 [Example 24, 3-[2,6-Dimethoxy-4-(methoxymethyl)phenyl]-6-methoxy-N,N-dipropylpyrazolo[5,1-b][1,3]thiazole-7-amine]	7.59
CCOc1nn2c(-c3c(OC)cc(COC)cc3OC)csc2c1N(CC1CCC1)C1CCOCC1 [Example 83, N-(Cyclobutylmethyl)-3-[2,6-dimethoxy-4-(methoxymethyl)phenyl]-6-ethoxy-N-(tetrahydro-2H-pyran-4-yl)-pyrazolo[5,1-b][1,3]thiazole-7-amine]	7.33
CCCN(c1c(OC)nn2c(-c3c(OC)cc(CC)cc3OC)csc12)C1CCOCC1 [Example 22, [3-(4-Ethyl-2,6-dimethoxyphenyl)-6-methoxypyrazolo[5,1-b][1,3]thiazol-7-yl]-propyl-(tetrahydro-pyran-4-yl)amine]	7.19
CCCCN(c1c(OC)nn2c(-c3c(OC)cc(C=O)cc3OC)csc12)C1CCOCC1 [Example 103]	7.00
COCCCN(c1c(OC)nn2c(-c3c(OC)cc(COC)cc3OC)csc12)C1CCC1 [Example 62, N-Cyclobutyl-3-[2,6-dimethoxy-4-(methoxymethyl)phenyl]-6-methoxy-N-(3-methoxypropyl)pyrazolo[5,1-b][1,3]thiazole-7-amine]	7.14
CCN(CC1C2COCC21)c1c(OC)nn2c(-c3c(OC)cc(C4CC4)cc3OC)csc12 (single isomer, unassigned; diastereomer 1) [Example 97, 3-(4-Cyclopropyl-2,6-dimethoxyphenyl)-N-ethyl-6-methoxy-N-[3-oxabicyclo[3.1.0]hex-6-ylmethyl]pyrazolo[5,1-b][1,3]thiazole-7-amine (diastereomer 1)]	7.10
CCOCc1cc(OC)c(-c2csc3c(N(CCCF)C4CCOCC4)c(OC)nn23)c(OC)c1 [Example 35, [3-(4-Ethoxymethyl-2,6-dimethoxy-phenyl)-6-methoxy-pyrazolo[5,1-b][1,3]thiazol-7-yl]-(3-fluoro-propyl)-(tetrahydro-pyran-4-yl)-amine]	7.05
COCc1cc(OC)c(-c2c(C)sc3c(N(CC4CC4)CC4CCOC4)c(OC)nn23)c(OC)c1 (stereo not drawn) [Example 8, Cyclopropylmethyl-[3-(2,6-dimethoxy-4-methoxymethyl-phenyl)-6-methoxy-2-methyl-pyrazolo[5,1-b][1,3]thiazol-7-yl]-(tetrahydro-furan-3-ylmethyl)-amine]	7.29
